Experimental data as given in PubChem BioAssay AID434987 (Southern Research Specialized Biocontainment Screening …, 2010).
pIC50: −log10 of the molar value. The source made the active and inactive calls. No rule for the calls is given here.

Test system: M. tuberculosis H37Rv growth inhibition with meropenem
Test: dose response, H37Rv, with and without meropenem (AID 434987);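 also: growth over 7 days at 37 °C before Alamar Blue read on day 9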
[1] = M. tuberculosis H37Rv growth inhibition, measured here: IC50 without meropenem
[2] = M. tuberculosis H37Rv growth inhibition, measured here: IC90 without meropenem
[3] = measured here: IC90 with meropenem

SMILES	IC50	pIC50 [1]	IC90 [2]	IC90 [3]	pIC50
CC(C)(C)c1nc2scc(-c3cccs3)c2c(=O)o1	> 100 µM (inactive)	< 4.00	> 100 µM	> 100 µM	–
O=S(=O)(Cc1ccccc1)c1cnc2ccccc2n1	14.1 µM (inactive)	4.62	26.6 µM	48.6 µM	–
O=C(Cc1cccc2ccccc12)N/N=C/c1ccc(OC(=O)/C=C/c2ccco2)cc1	69 µM (inactive)	< 4.00	> 100 µM	> 100 µM	–
CC(C)(C)C1=Nn2c(nnc2-c2ccccc2F)SC1	–	< 4.00	> 100 µM	78.3 µM	4.76
CC(C)(C)c1nnc2sc(SCC(=O)c3cccs3)nn2c1=O	–	< 4.00	> 100 µM	> 100 µM	4.71
CC#CC[N+](C)(C)CCCCCCCCCCCC	49 µM (inactive)	4.14	> 100 µM	> 100 µM	–
CCOc1ccc(/C=N/NC(=O)c2ccccc2O)cc1CN1CC2CC(C1)c1cccc(=O)n1C2 (configuration not stated)	79.8 µM (inactive)	4.02	> 100 µM	> 100 µM	–
C/C(=N\NC(=S)NCc1ccccc1)c1cccc(Br)c1	> 100 µM (inactive)	< 4.00	> 100 µM	> 100 µM	–
COc1ccc(CC2=C(O)c3ccccc3C(=O)C2=O)cc1	47.2 µM (inactive)	< 4.00	> 100 µM	> 100 µM	–
CN(C)c1ccc(S(=O)(=O)NCC(=O)OCC(=O)Nc2cccc(Cl)c2)cc1[N+](=O)[O-]	> 100 µM (inactive)	< 4.00	> 100 µM	> 100 µM	–
CC(O)/C=C/c1ccc2ccccc2n1 (configuration not stated)	27.7 µM (inactive)	4.27	> 100 µM	57.5 µM	–
CCCN1C(=O)S/C(=C/c2ccc(N3CCOCC3)o2)C1=O	–	4.46	> 100 µM	> 100 µM	> 6.70
Fc1ccc(C2Nc3cccc4cccc(c34)N2)cc1	> 100 µM (inactive)	< 4.00	> 100 µM	> 100 µM	–
O=C(COc1ccc2ccccc2c1)Nc1nc2ccccc2[nH]1	–	4.21	> 100 µM	> 100 µM	5.23
CCNC(=O)CCn1nc(-c2ccc(Cl)cc2)c2ccccc2c1=O	–	< 4.00	> 100 µM	> 100 µM	4.63
CCOC(=O)c1sc(NC(=O)Cn2nnc3sc4c(c3c2=O)CCC(C(C)(C)C)C4)nc1C (configuration not stated)	93.7 µM (inactive)	< 4.00	> 100 µM	> 100 µM	–
CNC(=S)N/N=C(\C)c1ccc(Cl)c(Cl)c1	> 100 µM (inactive)	< 4.00	> 100 µM	> 100 µM	–
O=C1CCNc2c(Cl)cccc21	> 100 µM (inactive)	< 4.00	> 100 µM	> 100 µM	–
CC(C)(C)NS(=O)(=O)c1ccc(NC(=O)C(Sc2ccccc2)c2ccccc2)cc1 (configuration not stated)	> 100 µM (inactive)	< 4.00	> 100 µM	> 100 µM	–
N#Cc1ccccc1/C=N/Nc1nc(-c2ccccc2)c2cc(Br)ccc2n1	> 100 µM (inactive)	< 4.00	> 100 µM	> 100 µM	–

SMILES	IC50	pIC50 [1]	IC90 [2]	IC90 [3]	pIC50
C=CCSc1nnc2c(n1)OC(c1c(C)[nH]n(-c3ccccc3)c1=O)Nc1ccccc1-2 (configuration not stated)	–	< 4.00	> 100 µM	> 100 µM	4.55
CC(C)C1CC(CCNCc2ccc(N(C)C)cc2)(c2ccccc2)CCO1 (configuration not stated)	24.5 µM (inactive)	4.54	40.7 µM	26.9 µM	–
CC[C@@]1(c2ccccc2OC)C(=O)N(C(=O)OC)N1C(=O)OC	–	< 4.00	> 100 µM	> 100 µM	4.86
CC(/C=C(\NC(=O)c1ccccc1)C(=O)N=Nc1c(O)[nH]c2ccc(C)cc12)=C\c1ccccc1	> 100 µM (inactive)	< 4.00	> 100 µM	> 100 µM	–
COc1ccc(/C=N\NC(=O)c2sc(N)nc2C)cc1OC	> 100 µM (inactive)	< 4.00	> 100 µM	> 100 µM	–
CC(C)C(=O)Nc1ccc2c3c(cccc13)CC2	–	< 4.00	> 100 µM	> 100 µM	4.71
COc1ccc(/C(O)=C/C(=O)C(=O)NNC(=O)C(O)(c2ccccc2)c2ccccc2)cc1	> 100 µM (inactive)	< 4.00	> 100 µM	> 100 µM	–
O=S(=O)(Nc1cccc(-c2ccc(N3CCCCCC3)nn2)c1)c1ccccc1Cl	–	< 4.00	> 100 µM	> 25 µM	4.80
C=C(C)COc1ccc2c(C)c(C)c(=O)oc2c1OCC(=C)C	79.2 µM (inactive)	< 4.00	> 100 µM	> 100 µM	–
O=C(CNc1ccccc1Cl)Nc1cc(S(=O)(=O)N2CCOCC2)ccc1Cl	> 100 µM (inactive)	< 4.00	> 100 µM	> 100 µM	–
CCN(CC)C(=O)Cn1cc(C(=O)C(=O)N2CCN(c3ccccc3)CC2)c2ccccc21	> 100 µM (inactive)	< 4.00	> 100 µM	> 100 µM	–
CCOC(=O)c1[nH]c2ccccc2c1NC(=O)Nc1ccc(OC)cc1	> 100 µM (inactive)	< 4.00	> 100 µM	> 100 µM	–
COC(=O)c1c(CSc2cccc(C)c2)noc1C(=O)NCc1ccco1	> 100 µM (inactive)	< 4.00	> 100 µM	> 100 µM	–
CC(=O)NC(c1cc(Cl)c2cccnc2c1O)C1CC1 (configuration not stated)	–	4.13	> 100 µM	> 100 µM	4.64
N#CC1=C2C=Cc3ccccc3N2CCCC1=O	–	4.03	> 100 µM	> 100 µM	4.67
CCC(=O)Nc1cc(OC)c(NC(=O)c2ccccc2)cc1OC	–	4.03	> 100 µM	> 100 µM	4.64
COc1cc(C(=O)NC2CCCCC2)ccc1OCc1ccc(Cl)cc1Cl	> 100 µM (inactive)	< 4.00	> 100 µM	> 100 µM	–
COc1cc(C(=O)N/N=C/c2ccc(OC(=O)c3cccc(C)c3)cc2)ccc1O	–	4.11	> 100 µM	53.4 µM	5.34
NNC(=S)Nc1ccc(C(F)(F)F)cc1Cl	> 100 µM (inactive)	< 4.00	> 100 µM	> 100 µM	–
CCC1CCCCN1C(=O)CSc1nnc(-c2ccc(Cl)s2)o1 (configuration not stated)	> 100 µM (inactive)	< 4.00	> 100 µM	> 100 µM	–

SMILES	IC50	pIC50 [1]	IC90 [2]	IC90 [3]	pIC50
COC(=O)N1C(=O)[C@](Cc2ccccc2)(c2ccccc2)N1C(=O)OC	> 100 µM (inactive)	< 4.00	> 100 µM	> 100 µM	–
CCCN1C(=O)c2ccc(C(=O)Nc3cc(C)on3)cc2C1=O	> 100 µM (inactive)	< 4.00	> 100 µM	> 100 µM	–
COc1ccc(-c2cc(C(N)=O)nc(N3CCCCCC3)n2)cc1	–	< 4.00	> 100 µM	> 100 µM	5.40
CC(C)(C)c1ccc(OCC(=O)N/N=C/c2cc(Br)ccc2OC(=O)c2ccco2)cc1	82.7 µM (inactive)	< 4.00	> 100 µM	> 100 µM	–
COc1ccc(OC)c2nc(-c3ccc4c(c3)OCO4)ccc12	–	< 4.00	> 100 µM	> 25 µM	4.75
COCCCNc1nc(SCc2ccccc2)nc2sc3c(c12)CCC3	97.3 µM (inactive)	< 4.00	> 100 µM	> 100 µM	–
COc1ccccc1C(=O)Nc1ccc2c3c(cccc13)CC2	–	4.44	> 50 µM	> 100 µM	5.09
O=C(CN1CCN(S(=O)(=O)c2ccc(F)cc2)CC1)Nc1ccc2c(c1)OCCO2	–	4.05	> 100 µM	> 100 µM	4.72
COc1ccc2nc(SCc3cccc(C)c3)nc(C)c2c1	> 100 µM (inactive)	< 4.00	> 100 µM	> 100 µM	–
COc1ccc(-c2c(C(F)(F)F)oc3cc(OCC(=O)Nc4ccccc4C(F)(F)F)ccc3c2=O)cc1OC	> 100 µM (inactive)	< 4.00	> 100 µM	> 100 µM	–
Cc1noc(/C=C/Nc2ccc(F)cc2F)c1[N+](=O)[O-]	> 100 µM (inactive)	< 4.00	> 100 µM	> 100 µM	–
O=C1OC(c2ccco2)=N/C1=C\c1ccc(-c2cccc(C(F)(F)F)c2)o1	48.9 µM (inactive)	4.12	> 100 µM	53.4 µM	–
CCSc1nnc(NC(=O)Cn2cnc3ccccc3c2=O)s1	> 100 µM (inactive)	< 4.00	> 100 µM	> 100 µM	–
Cc1nnc(SCC2=C(C(=O)O)N3C(=O)C(NC(=O)COc4ccc(F)cc4)C3SC2)s1 (configuration not stated)	–	4.00	> 100 µM	9.33 µM	5.76
O=C(CN(Cc1ccco1)C(=O)c1cccc(Cl)c1)Nc1c(Cl)cc(Cl)cc1Cl	48.3 µM (inactive)	< 4.00	> 100 µM	> 100 µM	–
O=C(NN1C(=O)c2cc(Br)ccc2NC1c1ccccc1Cl)c1ccncc1 (configuration not stated)	–	4.46	50.7 µM	13.7 µM	4.90
Nc1n[nH]c(N)c1N=Nc1cccc(F)c1	> 100 µM (inactive)	< 4.00	> 100 µM	> 100 µM	–
COc1ccc(C(=O)Nc2cccc3c2CCCC3)c(OC)c1	–	< 4.00	> 100 µM	> 100 µM	4.63
